The results in this text go back to a melting point compilation (Tetko et al.; mined from patent text by program, amines drawn as free bases though some values may be those of a salt).

One may read the melting point as the temperature, or range, at which the solid turns liquid.

In the case of `CCCOc1ccc(-c2scc(-c3ccccc3OC(F)(F)F)c2CC(=O)N=C(N)N)cc1`, the melting point is 90 to 92 °C.

As to `CC(C)(C)OC(=O)C(C1NC(C(=O)O)C2(CCSCC2)S1)N1C(=O)c2ccccc2C1=O` (stereo unspecified), the melting point was in the range of 210 to 212 °C. The figure for `COc1cc(N)c(Cl)cc1C(=O)NCC1CCN(CCCCN)CC1` is 104 to 107 °C; for `CCOC(=O)c1ccc(N2CCc3[nH]c4c(cnc5cc(Cl)ccc54)c3C2)cc1` it is 241 to 243 °C; for `O=C(O)CCCCC(=O)Nc1ccc(C(=O)NN=C2C(=O)Nc3ccc(I)cc32)cc1` it is 286 °C. The figure for `CC(Oc1ncn(-c2cccc(Br)c2)n1)C(=O)O` (stereo unspecified) is 198 to 200 °C; for `CCCCc1c(OC)cc(C(=O)O)nc1OC` it is 113 to 114 °C; for `CC(=O)CCC(=O)Nc1cc(CO)cc(Nc2c3ccccc3nc3ccccc23)c1` it is 197 to 199 °C. The figure for `Oc1cc(CN/C=C2\CN=Cc3ccc(I)cc32)ccc1OC(F)F` is 254 to 255 °C; for `CN(CC(=O)N(C)c1ccc(OCC(=O)N[C@@H](CC(N)=O)C(=O)[C@@H](C(N)c2ccccc2)[C@H](O)C(=O)N2CCC[C@H]2C(=O)NC(C)(C)C)cc1)c1ccccc1` (stereo partly specified) it is 107 to 112 °C; for `CC(=O)Nc1ccc(-c2cn(-c3nc(-c4ccc(C(F)(F)F)cc4)cc(C(F)(F)F)n3)cn2)cn1` it is 314 °C. In turn, `O=C(O)c1ccc(NCc2ccc(Cl)s2)cc1` gave a melting point of 177 to 178 °C. The figure for `Cc1sc(Cl)cc1C1(c2cccc(-c3cncnc3)c2)N=C(N)N(C)C1=O` (stereo unspecified) is 141 to 149 °C.

Regarding `Cc1cc(-n2ccc(O)cc2=O)sc1C(=O)NCc1cccc(F)c1`, the melting point fell in the range of 140 to 142 °C. As for `Cc1ccccc1P(=O)(O)c1ccccc1C`, the figure is 174 to 175 °C; as for `CCOC(=O)c1cccc(Nc2ncc3cc(-c4c(Cl)cccc4Cl)c(=O)n(C)c3n2)c1`, 238 to 240 °C; as for `Clc1cc2ccccc2cn1`, less than 50 °C. As for `Cc1cc(CO)n(CCCOc2cc3c(cc2C)OC2(CC(C)(C)c4cc(O)c(C)cc4O2)CC3(C)C)n1` (stereo unspecified), the figure is 208 to 210 °C; as for `O=C1NCC(Cc2cccc(F)c2)O1` (stereo unspecified), 77 to 78 °C; as for `CCOc1cccc(CC(=O)O)c1OCCCc1cn(-c2ccc(C(F)(F)F)cn2)nc1C(CC)CC`, 83 to 84 °C.

Molecule `C=CC(=O)N1C/C(=C\c2ccc([N+](=O)[O-])cc2)C(=O)/C(=C/c2ccc([N+](=O)[O-])cc2)C1` registered a melting point of 170 to 172 °C. As for `N#Cc1c[nH]cc1-c1cccc2c1OCO2`, the figure is 206 to 208 °C; as for `Cc1cccc(C)c1NC(N)=NN`, 192 to 193 °C. The figure for `NC(CCCCNC(=O)OCc1ccccc1)C(=O)Nc1cccc2ccccc12` (stereo unspecified) is 138 to 140 °C; for `Cc1cc(C)cc(-c2cnn3c(-c4cccc(NC(=O)CC(C)C)c4)ccnc23)c1` it is 178 to 180 °C. As for `Nc1ccc(O)cc1/C=C/C(=O)CC(=O)/C=C/c1ccc(O)cc1`, the figure is 186 to 192 °C; as for `CC(=O)c1ccc(CCC(=O)O)cc1`, 118 to 119 °C.

`CC(C)CCNc1c([N+](=O)[O-])cnc2ccccc12` had a melting point of 99 to 100 °C.

Molecule `O=C1NN=C(c2ccc3c(c2)CCN(C2CCC2)CC3)C2CC12` (stereo unspecified) showed a melting point of 129 to 132 °C. `N#Cc1ccc2c(c1)S(=O)(=O)NCN2C1CC1` gave a melting point of 259 to 261 °C. As to `Cc1cc(Nc2ccnc(Nc3ccc(S(=O)(=O)N4CCC(C(O)c5ccncc5)CC4)cc3)n2)ccc1F` (stereo unspecified), the melting point is 162 °C.

For `CNC(=O)c1ccc(-c2ccc3nnn(Cc4ccc5ncccc5c4)c3n2)cc1F`, the melting point is 212 to 214 °C. The figure for `O=C(C=Cc1ccc(O)c(O)c1)C=Cc1ccc(O)c(O)c1` is 221 to 223 °C; for `CC(C)CCCOc1c(-c2ccc(S(C)(=O)=O)cc2)cnn(-c2cccc(Cl)c2)c1=O` it is 139 to 140 °C; for `O=C(N[C@H]1CCN(CCc2ccc(F)cc2)C1)C(C1CCCCC1)C1CCCCC1` it is 122 to 124 °C.

As to `O=c1ccc(-c2cccc(-n3ccnc3)c2)n[nH]1`, the melting point lay in the range of 234 to 236 °C. In turn, `COc1nc(C)cnc1NS(=O)(=O)c1ccccc1-c1ccc(OC(C)C(=O)O)cc1` (stereo unspecified) yielded a melting point of 188 to 190 °C. The figure for `CCCc1ccc(C(=O)O)c2ccccc12` is 134 to 135 °C; for `CN1CCN(C2=C3CSCC34CC(=CC#N)C=CC4=NC=C2)CC1` (stereo unspecified) it is 90 to 92 °C. `CCCc1ccc(C(=O)NCCc2cccs2)cc1` displayed a melting point of 97 to 99 °C. As for `CC(=O)Oc1c(CN(C)C)c2c(c3c1OC(C)(C)C3)C(c1ccccc1)=NC(C)(C)C2`, the figure is 125 to 126 °C; as for `CC1=C(C(=O)OC(C)C)C(c2cccc(Cl)c2Cl)N(C(=O)OC(C)C)C(=S)N1` (stereo unspecified), 179 to 181 °C; as for `N#CN=C(NCNC(=O)c1ccc(Cl)cc1)Nc1cccnc1`, 196 to 197 °C.

As for `COc1ccc(C(=O)Nc2ccccc2)cc1NCc1ccc(C#N)cc1`, the melting point was in the range of 130 to 133 °C.

`CSCCC(S)C(=O)NC1(C(=O)NC(Cc2ccc(-c3ccsc3)nc2)C(=O)O)CCCC1` (stereo unspecified) came in with a melting point of 170 to 172 °C. As for `CCN1C(=O)C(=C2C=C(N3CCCC3)CC(C)(C)C2)SC1=S`, the figure is 234 to 235 °C; as for `NC(=O)c1ccc(COc2ccc3c(c2)CCN(C2CCN(C4CCC4)CC2)C3=O)cc1`, 292 to 293 °C; as for `CC(C)(C)OC(=O)CNC(=O)c1nc2cc(Cl)ccc2o1`, 152 to 154 °C. As for `Cc1cc(-c2cscn2)ccc1-c1cc(C(F)(F)F)nn1-c1ccc(S(C)(=O)=O)c(F)c1`, the figure is 132 °C; as for `CC(=O)N1CCC(C)(C)c2c(C)ccc(CCN3CCN(c4nsc5ccccc45)CC3)c21`, 132 °C; as for `O=C(Cn1nc(-c2ccccc2O)nc1-c1ccccc1O)NCCN1CCOCC1`, 180 to 182 °C. The figure for `CCOC(=O)CCc1cn(Cc2ccc(OCc3ccccc3)cc2)nc1OCc1ccc(OCc2ccccc2)cc1` is 98 to 99 °C.

`CC(C)(C)NCC(O)COc1ccc2c(=O)cc(-c3cc(OCc4ccccc4)cc(OCc4ccccc4)c3)oc2c1` (stereo unspecified) registered a melting point of 170 to 171 °C.

As to `COC(=O)CCCc1cc2nc(Cl)ccc2n1S(=O)(=O)c1ccc(C)c2ccccc12`, the melting point fell in the range of 118 to 120 °C. Molecule `CC(C)CC(=O)Nc1c(C(=O)C2CCCCC2)[nH]c2cc(Cl)ccc12` gave a melting point of 209 to 215 °C. With `COC(=O)CNC(=O)c1ccc(I)cc1`, the melting point was in the range of 166 to 168 °C. On to `COc1ccc(C(=O)Nc2cccnc2)cc1NC(=S)Nc1ccc(Cl)c(Cl)c1`, for which the melting point was 179 to 180 °C. As for `CC(=O)Nc1ccn([C@@H]2[C@H](O)[C@H](O)CC[C@H]2OC(C)=O)c(=O)n1` (racemic), the figure is 249 °C; as for `N#Cc1cc(-c2ccccn2)nn1-c1ccc(NC(=O)c2ccncc2F)cc1`, 118 to 119 °C.

In turn, `O=C(Nc1ccc(Br)cn1)C(F)(F)F` registered a melting point of 70 to 72 °C. As for `CC(C)(C)OC(=O)COc1ccc2sc(C(=O)Nc3ccccc3NC(=O)OC(C)(C)C)cc2c1`, the figure is 166 °C; as for `CC(=O)Nc1ccc(C(O)C2CCN(CCc3ccccc3)CC2)cc1` (stereo unspecified), 173 to 174 °C; as for `COc1ccc(C(CNc2ncnc3c2ncn3C2OC(CO)C(O)C2O)c2ccccc2)cc1` (stereo unspecified), 87 to 92 °C. For the molecule `N#Cc1cc(-n2ccc(-c3ccc(F)cc3)n2)cc(S(N)(=O)=O)c1`, the melting point fell in the range of 184 to 185 °C. The figure for `CCOC(=O)c1cc2occc2nc1C(=O)OCC` is 60 to 64 °C; for `Cn1cc(C(=O)O)c(=O)c2c3ccc(F)c(N4CCC(O)(c5cccc(C(F)(F)F)c5)CC4)c3ncc21` it is 245 °C. As for `CC(C)c1cc2nc(N)sc2cc1Sc1ccc(CCc2ccc(F)cc2)c(CCC2=C(O)CC(C(C)C)OC2=O)c1` (stereo unspecified), the figure is 204 to 206 °C; as for `C[C@H](O)Cc1ncc[nH]1`, 119 to 121 °C; as for `Brc1ccc(N2CCN(CCCc3[nH]nc4c3CCCC4)CC2)cc1`, 145 to 147 °C. The figure for `Cn1ncc2[nH]c3ccc(Cc4cccc([N+](=O)[O-])c4)cc3c(=O)c21` is 279 to 283 °C; for `CCCCC/C(=C\C=C\C(=O)O)c1ccc(OC)c(OC)c1` it is 98 to 99.5 °C; for `COC(=O)c1ccccc1-c1ncc(-c2cccc(C(F)(F)F)c2)o1` it is 92.5 to 94 °C. With `COC(=O)c1ccc(S(=O)(=O)n2c(=O)[nH]c3cc(Cl)ccc3c2=O)cc1`, the melting point is more than 230 °C. The figure for `O=C(NCCCCCCCCn1ccnc1)c1ccc(Cl)nc1` is 79 to 81 °C. In turn, `CCC(=O)Nc1cc(C2=NNC(=O)CC2C)ccc1N1CCOCC1` (stereo unspecified) displayed a melting point of 193 to 196 °C. As for `CCOC(=O)Cc1ccc(NC(=O)C(COc2ccccc2)NS(=O)(=O)c2ccc(I)cc2)cc1` (racemic), the figure is 178 to 180 °C.

Turning to `O=C(OCc1ccccc1)c1cc(C(=O)OCc2ccccc2)n(CCBr)n1`, the melting point is 112 °C. As for `CCN1CN2C(=N1)C(c1ccccc1Cl)=NCc1ccsc12`, the figure is 153 to 154 °C; as for `CC(=O)SCC(Cc1ccccc1)C(=O)Nc1ccc(O)c(C(=O)O)c1` (stereo unspecified), 185 to 188 °C; as for `O=S(=O)(N[C@H](CO)C(CC(F)(F)F)CC(F)(F)F)c1ccc(Cl)cc1`, 186 to 187 °C.

In turn, `COC(=O)Nc1ccc(Br)c(C)c1` gave a melting point of 71 to 72 °C. The figure for `CCOC(=O)c1cnc2n(c1=O)C(C)CC=C2N(C)c1ccccc1` (stereo unspecified) is 140 to 142 °C. As for `COc1cc(OCC(=O)O)c2c3c(n(Cc4ccccc4)c2c1)CCCC3C(N)=O` (stereo unspecified), the figure is 251 to 254 °C. As for `Cc1ccnc(C(=O)c2ccc(F)cc2)c1`, the figure is 98 to 100 °C; as for `c1ccc(-c2nn3cnnc3c3ccccc23)cc1`, 198 to 199 °C.

In the case of `CC1CC2C3CCC4=CC(=O)CCC4(C)C3=CCC2(C)C1(O)C(=O)CO` (stereo unspecified), the melting point lay in the range of 167 to 168 °C.
